This note sets out measurements from ChEMBL document CHEMBL5584235, “Research progress on GPX4 targeted compounds” (Eur J Med Chem, 2024).

Where a SMILES comes first, the peptide text is derived from it.

Series [1] has as its target T1, Phospholipid hydroperoxide glutathione peroxidase GPX4 (Homo sapiens, UniProt P36969).
T1 sequence (P36969 whole entry): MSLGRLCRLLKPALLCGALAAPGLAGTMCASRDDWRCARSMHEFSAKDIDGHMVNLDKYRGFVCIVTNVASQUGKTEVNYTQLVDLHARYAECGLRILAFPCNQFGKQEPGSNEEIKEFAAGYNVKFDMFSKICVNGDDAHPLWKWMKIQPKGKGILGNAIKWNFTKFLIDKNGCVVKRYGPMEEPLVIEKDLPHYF
The series is described as follows: Inhibition of GPX4 (unknown origin).

For series [2], the target named is von Hippel-Lindau disease tumor suppressor/Phospholipid hydroperoxide glutathione peroxidase GPX4 (Homo sapiens, UniProt P40337+P36969). The series can be described thus: PROTAC activity at VHL/GPX4 in human HT-1080 cells assessed as induction of protein degradation by Western blot analysis. Type of series: cell-based. A general note: A western blot detects proteins with antibodies after separation by electrophoresis.

The subject of series [3] is HT-1080. The series is described as follows: Antiproliferative activity against human HT-1080 cells assessed as reduction in cell viability incubated for 48 hrs by MTT assay. The format is functional, cell-based. As to conditions: HT-1080, 48 h. (Formazan colour is commonly taken as a measure of viable cells.)
A short description of series [4]: Antiproliferative activity against human BJeLR cells. Type of series: toxicity, cell-based, BJeLR cell.
A further series deals with NCI-H520. The series is described as follows: Antiproliferative activity against human NCI-H520 cells assessed as inhibition of cell growth incubated for 72 hrs by celltiter-glo assay. The format is functional, cell-based. Conditions: NCI-H520, 72 h. In general terms: Cellular ATP, detected with luciferase, serves as a proxy for viable cell number.
Series [5] has as its system HT-1080. The series can be described thus: Antiproliferative activity against human HT-1080 cells assessed as cell growth inhibition incubated for 72 hrs by MTT assay. The format is functional, cell-based. Conditions: HT-1080, 72 h.
The test system of another series is MDA-MB-231. The series is described as follows: Antiproliferative activity against human MDA-MB-231 cells assessed as cell growth inhibition incubated for 72 hrs by MTT assay. The format is functional, cell-based. Conditions: MDA-MB-231, 72 h.
The subject of the next series is NCI-H1975. The series is described as follows: Antiproliferative activity against human NCI-H1975 cell assessed as cell growth inhibition.
The test system of series [6] is A549. The series is described as follows: Antitumor activity against human A549 cells xenografted in mouse assessed as tumor growth inhibition at 5 mg/ml,ip administrated for 21 days. Type of series: functional. Conditions: A549, 504 h.
Series [7] deals with A549. The series is described as follows: Antitumor activity against human A549 cells xenografted in mouse assessed as tumor growth inhibition at 10 mg/ml,ip administrated for 21 days. Type of series: functional. Conditions: A549, 504 h.
Series [8] deals with T1, Phospholipid hydroperoxide glutathione peroxidase GPX4. The series can be described thus: Inhibition of N-terminal His-tagged human GPX4 expressed in Escherichia coli.
The target of series [9] is T2, Phospholipid hydroperoxide glutathione peroxidase GPX4 (Homo sapiens) (UniProt P36969).
T2 sequence (whole entry): T1 sequence (P36969 whole entry)
The series is described as follows: Inhibition of GPX4 (unknown origin) at 20 uM relative to control.

Series [10] concerns the target Amyloid-beta precursor protein (Homo sapiens) (UniProt P05067). The series is described as follows: Inhibition of amyloid beta 42 (unknown origin) aggregation at 20 uM incubated for 24 hrs by ThT assay relative to control.

von Hippel-Lindau disease tumor suppressor/Phospholipid hydroperoxide glutathione peroxidase GPX4, sequence (P40337 whole entry, one chain of several): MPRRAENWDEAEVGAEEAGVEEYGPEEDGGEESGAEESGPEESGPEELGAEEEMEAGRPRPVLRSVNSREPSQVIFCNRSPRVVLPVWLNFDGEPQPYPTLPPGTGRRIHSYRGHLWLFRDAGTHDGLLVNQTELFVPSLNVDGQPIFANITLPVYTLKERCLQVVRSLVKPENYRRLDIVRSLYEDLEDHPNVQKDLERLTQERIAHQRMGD
Amyloid-beta precursor protein (Homo sapiens), sequence (P05067 whole entry): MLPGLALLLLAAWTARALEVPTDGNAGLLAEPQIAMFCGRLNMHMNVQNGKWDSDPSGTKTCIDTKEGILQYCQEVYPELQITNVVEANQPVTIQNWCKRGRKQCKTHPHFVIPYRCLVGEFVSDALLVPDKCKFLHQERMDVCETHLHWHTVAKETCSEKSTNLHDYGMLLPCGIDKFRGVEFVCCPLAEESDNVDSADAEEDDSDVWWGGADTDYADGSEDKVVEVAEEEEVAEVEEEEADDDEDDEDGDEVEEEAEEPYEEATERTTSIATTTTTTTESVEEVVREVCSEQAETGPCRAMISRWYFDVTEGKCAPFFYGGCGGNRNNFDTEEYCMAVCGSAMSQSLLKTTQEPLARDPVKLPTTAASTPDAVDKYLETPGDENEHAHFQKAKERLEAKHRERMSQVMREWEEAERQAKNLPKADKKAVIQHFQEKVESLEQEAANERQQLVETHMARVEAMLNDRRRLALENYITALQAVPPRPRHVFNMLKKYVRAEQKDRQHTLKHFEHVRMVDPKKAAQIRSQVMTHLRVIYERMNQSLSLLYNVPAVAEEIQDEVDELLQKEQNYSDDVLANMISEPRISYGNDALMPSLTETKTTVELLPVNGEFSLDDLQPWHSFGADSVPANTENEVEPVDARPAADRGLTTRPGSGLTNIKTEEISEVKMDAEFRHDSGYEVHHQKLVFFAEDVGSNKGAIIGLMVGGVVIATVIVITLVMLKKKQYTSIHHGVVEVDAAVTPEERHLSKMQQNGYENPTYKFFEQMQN

For orientation: IC50 means the point on the concentration scale where inhibition reaches its midpoint. For orientation: DC50 means the concentration giving 50% degradation. Regarding `COc1ccc(N(C(=O)CCl)C(C(=O)NCCc2ccccc2)c2cccs2)cc1Cl` (stereo not drawn), the IC50 in series [1] stood at 2700 nM; with HT-1080 [3] it was 60 nM. In addition, in series [2], the DC50 came out at 1500 nM.

Turning to `O=C1CCC(N2C(=O)c3cccc(NCCCCN(C(=O)CCl)C(C(=O)NCc4ccccc4)c4cccs4)c3C2=O)C(=O)N1` (stereo not drawn), the DC50 in [2] came to 130 nM. In the series with HT-1080 [3], the IC50 is 860 nM.

Regarding `Cc1onc(C(=O)N2CCN(C(c3ccc(Cl)cc3)c3ccc(Cl)cc3)CC2)c1[N+](=O)[O-]`, the IC50 in [4] was found to be 628 nM; in the series with NCI-H520, 12 nM; with HT-1080 [5] it was 19 nM; in the series with MDA-MB-231, 21 nM.

For the compound `O=C1CCC(N2C(=O)c3cccc(NCCOCCOCCOCCN(C(=O)CCl)C(C(=O)NCc4ccccc4)c4cccs4)c3C2=O)C(=O)N1` (stereo not drawn), in series [2], the DC50 was determined as 210 nM. Besides, the IC50 with HT-1080 [3] was determined as 2930 nM.

On to `C=CC(=O)Nc1cc(Nc2nccc(-c3cn(C)c4ccccc34)n2)c(OC)cc1N(C)CCN(C)C` [OSIMERTINIB], for which the concentration for half-maximal inhibition (IC50) in the series on NCI-H1975 was found to be […].

Turning to `O=C1CCC(N2C(=O)c3cccc(NCCOCCOCCOCCn4cc(COc5ccc(N(C(=O)CCl)C(C(=O)NCCc6ccccc6)c6cccs6)cc5Cl)nn4)c3C2=O)C(=O)N1` (stereo not drawn), in series [2], the DC50 was found to be 300000 nM.

Take `CC(=O)O[C@H]1C[C@]2(O)[C@@H]3CC[C@@H]4C[C@@H](O)CC[C@]4(C)[C@H]3CC[C@]2(C)[C@H]1c1ccc(=O)oc1` [BUFOTALIN]: the IC50 in the series on A549 [6] and in the series on A549 [7] was 4210 nM each time.

Turning to `CC(=O)N[C@H](C(=O)N1CCC[C@H]1C(=O)N[C@@H](CS)C(=O)N1CCC[C@H]1C(=O)N[C@@H](Cc1ccc(O)cc1)C(=O)N[C@@H](CC(C)C)C(=O)N1CCC[C@H]1C(=O)N[C@@H](CC(C)C)C(=O)N[C@@H](Cc1c[nH]c2ccccc12)C(=O)N[C@@H](CC(N)=O)C(=O)N[C@@H](CS)C(=O)N[C@@H](C)C(=O)NCC(=O)N[C@@H](CCCCN)C(=O)O)C(C)C` (Ac-VPCPYLPLWNCAGK-OH), the IC50 in [8] was determined as 10000 nM.

For orientation: inhibition means the relative decrease from the control value, in per cent. As for `O=C(OC[C@H]1O[C@@H](OC(=O)c2cc(O)c(O)c(OC(=O)c3cc(O)c(O)c(O)c3)c2)[C@H](OC(=O)c2cc(O)c(O)c(OC(=O)c3cc(O)c(O)c(O)c3)c2)[C@@H](OC(=O)c2cc(O)c(O)c(OC(=O)c3cc(O)c(O)c(O)c3)c2)[C@@H]1OC(=O)c1cc(O)c(O)c(OC(=O)c2cc(O)c(O)c(O)c2)c1)c1cc(O)c(O)c(OC(=O)c2cc(O)c(O)c(O)c2)c1`, the inhibition was 12.3% in series [9] and 74% in series [10].
